Data as given in patent US20100003191A1, “AURONE DERIVATIVE-CONTAINING COMPOSITION FOR DIAGNOSIS” (NAGASAKI UNIVERSITY, priority 2006, published 2010).

Experiment: In vivo radioactivity biodistribution experiment in normal mice (Example 1, Table 13)
Design: species or system ddY mice
Experimental: ^125I-labeled compounds were diluted with 10% ethanol-containing physiological saline. […] After their blood was collected, organs were removed, and the weights and radioactivities thereof were measured.
When any of the aurone derivatives was used, sufficient radioactivity to perform imaging of intracerebral amyloid migrated to the brain from the early stage of injection (1.7-4.6% ID/g). […] It was also shown that, in any of the aurone derivatives, in vivo radioactivity behavior is discharged mainly from the liver to the bile duct and the intestinal tract.

Biodistribution of radioactivity, Blood (2 min after injection): 3.64 (0.78) % injected dose per gram | Biodistribution of radioactivity, Blood (10 min after injection): 4.38 (0.52) % injected dose per gram | Biodistribution of radioactivity, Blood (30 min after injection): 2.87 (0.82) % injected dose per gram | Biodistribution of radioactivity, Blood (60 min after injection): 2.35 (1.38) % injected dose per gram | Biodistribution of radioactivity, Brain (2 min after injection): 4.57 (0.27) % injected dose per gram | Biodistribution of radioactivity, Brain (10 min after injection): 1.51 (0.17) % injected dose per gram | Biodistribution of radioactivity, Brain (30 min after injection): 0.49 (0.06) % injected dose per gram | Biodistribution of radioactivity, Brain (60 min after injection): 0.26 (0.03) % injected dose per gram | Biodistribution of radioactivity, Heart (2 min after injection): 6.77 (0.74) % injected dose per gram | Biodistribution of radioactivity, Heart (10 min after injection): 2.69 (0.45) % injected dose per gram | Biodistribution of radioactivity, Heart (30 min after injection): 1.30 (0.41) % injected dose per gram | Biodistribution of radioactivity, Heart (60 min after injection): 0.98 (0.25) % injected dose per gram | Biodistribution of radioactivity, Intestine (2 min after injection): 3.12 (0.85) % injected dose per gram | Biodistribution of radioactivity, Intestine (10 min after injection): 5.06 (1.51) % injected dose per gram | Biodistribution of radioactivity, Intestine (30 min after injection): 15.47 (5.48) % injected dose per gram | Biodistribution of radioactivity, Intestine (60 min after injection): 18.30 (7.21) % injected dose per gram | Biodistribution of radioactivity, Kidney (2 min after injection): 10.87 (2.95) % injected dose per gram | Biodistribution of radioactivity, Kidney (10 min after injection): 13.12 (4.30) % injected dose per gram | Biodistribution of radioactivity, Kidney (30 min after injection): 12.05 (5.44) % injected dose per gram | Biodistribution of radioactivity, Kidney (60 min after injection): 4.95 (1.82) % injected dose per gram | Biodistribution of radioactivity, Liver (2 min after injection): 9.17 (3.45) % injected dose per gram | Biodistribution of radioactivity, Liver (10 min after injection): 8.48 (2.84) % injected dose per gram | Biodistribution of radioactivity, Liver (30 min after injection): 7.64 (2.19) % injected dose per gram | Biodistribution of radioactivity, Liver (60 min after injection): 5.85 (1.09) % injected dose per gram | Biodistribution of radioactivity, Lung (2 min after injection): 9.06 (0.47) % injected dose per gram | Biodistribution of radioactivity, Lung (10 min after injection): 7.01 (0.28) % injected dose per gram | Biodistribution of radioactivity, Lung (30 min after injection): 5.83 (0.55) % injected dose per gram | Biodistribution of radioactivity, Lung (60 min after injection): 5.23 (1.44) % injected dose per gram | Biodistribution of radioactivity, Pancreas (2 min after injection): 4.96 (0.44) % injected dose per gram | Biodistribution of radioactivity, Pancreas (10 min after injection): 2.01 (0.49) % injected dose per gram | Biodistribution of radioactivity, Pancreas (30 min after injection): 1.22 (0.21) % injected dose per gram | Biodistribution of radioactivity, Pancreas (60 min after injection): 0.87 (0.30) % injected dose per gram | Biodistribution of radioactivity, Spleen (2 min after injection): 2.29 (0.36) % injected dose per gram | Biodistribution of radioactivity, Spleen (10 min after injection): 1.64 (0.29) % injected dose per gram | Biodistribution of radioactivity, Spleen (30 min after injection): 0.84 (0.29) % injected dose per gram | Biodistribution of radioactivity, Spleen (60 min after injection): 0.92 (0.07) % injected dose per gram | Biodistribution of radioactivity, Stomach (2 min after injection): 1.59 (0.71) % injected dose per organ | Biodistribution of radioactivity, Stomach (10 min after injection): 2.94 (0.86) % injected dose per organ | Biodistribution of radioactivity, Stomach (30 min after injection): 4.01 (2.29) % injected dose per organ | Biodistribution of radioactivity, Stomach (60 min after injection): 3.49 (2.00) % injected dose per organ
SMILES: Nc1ccc(/C=C2\Oc3ccc([125I])cc3C2=O)cc1 [[^125I]14]
